According to publication PMC8097242, “Galectin-4 N-Terminal Domain: Binding Preferences Toward A and B Antigens With Different Peripheral Core Presentations” (Frontiers in Chemistry, 2021):

Experiments:
Assay type in all cases: binding
[1] = biological target: T1, N-terminal CRD of hGalectin-4 (Gal-4N) (Homo sapiens, UniProt P56470); test: Isothermal titration calorimetry (ITC); details: for Kd: PBS pH 7.4, single binding site model
T1 construct: N-terminal CRD of hGalectin-4 (amino acids 1–150, including an additional C-terminus His-Tag); His-Tag (C, cleaved yes); made in house; host or cells: E. coli BL21 (pET29b)
T1 sequence (P56470 1-150): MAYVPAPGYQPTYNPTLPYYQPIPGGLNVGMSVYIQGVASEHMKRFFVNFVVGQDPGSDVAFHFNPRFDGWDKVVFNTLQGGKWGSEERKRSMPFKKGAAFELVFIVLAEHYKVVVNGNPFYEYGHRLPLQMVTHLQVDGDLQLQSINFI
Experimental: Isothermal titration calorimetry experiments were performed using the MicroCal PEAQ-ITC calorimeter (Malvern Panalytical, Malvern, United Kingdom). Samples containing 100–200 μM of Gal-4N in PBS (50 mM sodium phosphate, pH 7.4, 300 mM NaCl) were titrated with stocks of 3–10 mM in PBS of glycans 4, 5, 7, 8, 9, and 11. During the automated experiment, small aliquots (2–3 μL) of the sugar stocks were added to the cell containing the lectin. Curve fitting to a single binding site model was performed with the MicroCal Origin 7 software.
Isothermal titratrion calorimetry (ITC). Isothermal Titration Calorimetry experiments were performed using MicroCal PEAQ-ITC calorimeter. Samples containing 100-200 µM of Gal-4N in PBS (50 mM sodium phosphate pH 7.4, 300 mM NaCl) were titrated with stocks of 3-10 mM in PBS of glycans A type 1, A type 2, A type 6, B type 1, B type 2 and B type 6. During the automated experiment, small aliquots (2-3 µL) of the sugar stocks were added to the cell containing the lectin. The association constants and the thermodynamic profile of the binding was calculated from the fitting of the titration data to a single binding site model.

[2] = biological target: T1, N-terminal CRD of hGalectin-4 (Gal-4N); test: 1H Saturation Transfer Difference (STD) NMR epitope mapping
Experimental: ^1H-saturation transfer difference NMR spectra were acquired for mixtures of Gal-4N (50 μM) with a 50-fold excess of ligand. Protein aromatic irradiation afforded the best STD intensities and thus these are discussed henceforth. The STD NMR spectra were very similar among the different ligands with respect to both the observed glycan protons and their intensities. […] Severe proton overlapping precluded a full comparison among ligands, but key isolated ^1H NMR resonance signals permitted to highlight evident differences.
All the STD NMR experiments were performed using an 800 MHz Bruker spectrometer with a cryoprobe (Bruker, Billerica, MA, United States). The samples were prepared in the corresponding deuterated buffer. The temperature was 288 K for every experiment. An amount of 50 μM of the lectin with 50 equivalents of the ligand was employed for every experiment except for lactose, for which a 1:70 ratio was used. The STD spectra were acquired with 1,024 scans, 2 s of saturation time using a train of 50 ms Gaussian-shaped pulses, and 3 s of relaxation delay. The spin-lock filter applied to remove the signals of the lectin was set at 40 ms. The on-resonance frequency was set for the aromatic region at 6.58 ppm, while the off-resonance frequency was set at 100 ppm.
Supplementary Table S1. Relative STD-AF (Amplification factor) and STD percentage of each non overlapping proton of each ligand.

[3] = biological target: T1, N-terminal CRD of hGalectin-4 (Gal-4N); test: 1H-15N HSQC NMR-based titrations (chemical shift perturbation) of 15N-labeled Gal-4N; details: HSQC NMR-based titration, 50 μM 15N-labeled lectin, 298 K; read-out: KD (μM) (NMR)
Experimental: The molecular recognition event was also analyzed from the perspective of the lectin. Thus, a chemical shift perturbation (CSP) analysis of the changes produced in the ^1H-^15N HSQC spectra recorded for ^15N-labeled Gal-4N upon addition of the different ligands was carried out. This analysis required the NH backbone NMR assignment of the lectin signals, following well-established triple resonance 3D NMR methods (see Materials and methods and Supplementary Information). The assignment protocol allowed assigning 80% of the NH backbone resonances. In addition to the ligands shown in Scheme 1, the corresponding non-fucosylated analogs and the H antigens (devoid of the terminal Gal/GalNAc moieties, see Supplementary Information), as well as lactose, were also employed. Thus, a full comparative analysis on the monosaccharide-specific effects on the lectin CSP was achieved.
The total volume for the NMR samples was 500/μl. The lectin was in phosphate-buffered saline (50 mM sodium phosphate, 150 mM NaCl, pH 7.4), either in D2O or 90:10 H2O:D2O depending on the NMR experiment. The pH was adjusted with the required amount of NaOH and HCl or NaOD and DCl.
experiments were acquired using an 800 MHz Bruker spectrometer with a cryoprobe (Bruker, Billerica, MA, United States). The samples were prepared using 50 μM of the ^15N-labeled lectin in the corresponding buffer in a 90:10 H2O:D2O ratio. The experiments were performed at 298 K. Six to nine points were recorded for each ligand and CSP and KD were calculated using CcpNmr Analysis 2.4.2.

[4] = 1H-residue H4GalNAc (terminal, A type 6)
[5] = 1H-residue NHAcGlcNAc (B type 1: first of two lines)
[6] = 1H-residue NHAcGlcNAc (B type 1: second of two lines)
[7] = 1H-residue H4GalNAc (B type 4, core GalNAc)

## CC(=O)NC1C(OC2C(O)C(CO)OC(OC3C(CO)OC(O)C(O)C3O)C2OC2OC(C)C(O)C(O)C2O)OC(CO)C(O)C1O (stereo not shown) [A type-6 (tetra)]
[1]
  -TΔS (kcal mol^–1) (ITC): 2.9 kcal mol^–1
  ΔG (kcal mol^–1) (ITC): −5.6 kcal mol^–1
  ΔH (kcal mol^–1) (ITC): −8.5 kcal mol^–1
  Kd: 86 µM
[1]; Glc vs GlcNAc at reducing end, β1–4 linked
  increased affinity of type-6 vs corresponding type-2 antigen: two-fold
[2]; 1H-residue H1 Fuc
  STD%: 13%
  STD-AF: 0.0020
[2]; 1H-residue H1GalNAc
  STD%: 82%
[2]; 1H-residue H1GalNAc, 50:1 ligand:lectin, 288 K
  STD-AF: 0.0129
[2]; 1H-residue H1Galβ
  STD%: 58%
  STD-AF: 0.0091
[2]; 1H-residue H1Glca
  STD%: 21%
  STD-AF: 0.0033
[2]; 1H-residue H1Glcb
  STD%: 18%
  STD-AF: 0.0028
[2]; 1H-residue H2GalNAc
  STD%: 51%
  STD-AF: 0.0081
[2]; 1H-residue H2Glca / H2Glcα
  STD%: 34%
  STD-AF: 0.0054
[2]; 1H-residue H2Glcb / H2Glcβ
  STD%: 30%
  STD-AF: 0.0048
[2]; 1H-residue H3Galβ
  STD%: 39%
  STD-AF: 0.0061
[2]; 1H-residue H3Glcb / H3Glcβ
  STD%: 32%
  STD-AF: 0.0050
[2]; [4]
  STD%: 16%
  STD-AF: 0.0025
[2]; 1H-residue H4Galβ
  STD%: 60%
  STD-AF: 0.0095
[2]; 1H-residue H5Galβ
  STD%: 100%
  STD-AF: 0.0158
[2]; 1H-residue MetFuc
  STD%: 10%
  STD-AF: 0.0016
[2]; 1H-residue NHAc GalNAc
  STD%: 100%
  STD-AF: 0.0158
[3]
  Kd: 150 µM

## CC(=O)NC1C(O)OC(CO)C(OC2OC(CO)C(O)C(OC3OC(CO)C(O)C(O)C3NC(C)=O)C2OC2OC(C)C(O)C(O)C2O)C1O (stereo not shown) [A type−2 (tetra)]
[1]
  -TΔS (kcal mol^–1) (ITC): 1.8 kcal mol^–1
  ΔG (kcal mol^–1) (ITC): −5.1 kcal mol^–1
  ΔH (kcal mol^–1) (ITC): −6.9 kcal mol^–1
  Kd: 187 µM
[3]
  Kd: 370 µM

## CC(=O)N[C@@H]1[C@@H](O[C@@H]2O[C@H](CO)[C@H](O)[C@H](O[C@H]3O[C@H](CO)[C@H](O)[C@H](O)[C@H]3O)[C@H]2O[C@@H]2O[C@@H](C)[C@@H](O)[C@@H](O)[C@@H]2O)[C@H](O)[C@@H](CO)O[C@H]1O [B type-1 (tetra)]
[1]
  -TΔS (kcal mol^–1) (ITC): 2.3 kcal mol^–1
  ΔG (kcal mol^–1) (ITC): −5.4 kcal mol^–1
  ΔH (kcal mol^–1) (ITC): −7.7 kcal mol^–1
  Kd: 109 µM
[2]; 1H-residue H1 Fuc
  STD%: 0%
  STD-AF: 0.0000
[2]; 1H-residue H1Galα
  STD%: 56%
  STD-AF: 0.0053
[2]; 1H-residue H1Galβ
  STD%: 70%
  STD-AF: 0.0066
[2]; 1H-residue H1GlcNAc
  STD%: 16%
  STD-AF: 0.0015
[2]; 1H-residue H2Galα
  STD%: 35%
  STD-AF: 0.0033
[2]; 1H-residue H2GlcNAc
  STD%: 29%
  STD-AF: 0.0027
[2]; 1H-residue H3GlcNAc
  STD%: 38%
  STD-AF: 0.0036
[2]; 1H-residue H4Galβ
  STD%: 74%
  STD-AF: 0.0070
[2]; 1H-residue H4GlcNAc
  STD%: 53%
  STD-AF: 0.0050
[2]; 1H-residue H5Galα
  STD%: 23%
  STD-AF: 0.0022
[2]; 1H-residue H5Galβ
  STD%: 100%
  STD-AF: 0.0094
[2]; 1H-residue MetFuc
  STD%: 14%
  STD-AF: 0.0013
[2]; [5]
  STD%: 141%
  STD-AF: 0.0133
[2]; [6]
  STD%: 59%
  STD-AF: 0.0055
[2]; Average NHAc
  STD%: 100%
  STD-AF: 0.0094
[3]
  Kd: 200 µM

## CC(=O)NC1C(OC2C(O)C(O)OC(CO)C2O)OC(CO)C(O)C1OC1OC(CO)C(O)C(OC2OC(CO)C(O)C(O)C2O)C1OC1OC(C)C(O)C(O)C1O (stereo not shown) [B type-4 (penta)]
[2]; 1H-residue H1 Fuc
  STD%: 21%
  STD-AF: 0.0020
[2]; 1H-residue H1Galα
  STD%: 100%
  STD-AF: 0.0094
[2]; 1H-residue H1Galβ
  STD%: 49%
  STD-AF: 0.0046
[2]; 1H-residue H2Galβ
  STD%: 47%
  STD-AF: 0.0044
[2]; 1H-residue H3Galα
  STD%: 44%
  STD-AF: 0.0041
[2]; [7]
  STD%: 30%
  STD-AF: 0.0028
[2]; 1H-residue H4Galβ
  STD%: 68%
  STD-AF: 0.0064
[2]; 1H-residue H5Galβ
  STD%: 86%
  STD-AF: 0.0081
[2]; 1H-residue MetFuc
  STD%: 10%
  STD-AF: 0.0009
[2]; 1H-residue NHAc (B type 4)
  STD%: 36%
  STD-AF: 0.0034
[3]
  Kd: 460 µM
